Active and inactive are the calls of the source. No cut-off for these calls is given here.
Tests used:
[1] = system: Mycolicibacterium smegmatis; assay: Activity of AftB in Mycobacterium smegmatis membrane assessed as formation of biosynthetic products by TLC based assay; type: cell membranes
[2] = system: Mycolicibacterium smegmatis; assay: Activity of AftB in Mycobacterium smegmatis membrane/p60 fraction assessed as incorporation of DP[3H]A to compound to generate biotinylated trisaccharide with beta-(1 to 2) Araf residue by SPA assay

Activity [1] | Km [2] [µM] | SMILES
Active |  | C=CCCCO[C@H]1O[C@H](CO[C@H]2O[C@H](CO[C@H]3O[C@H](CO[C@H]4O[C@H](CO)[C@@H](O)[C@@H]4O)[C@@H](O)[C@@H]3O)[C@@H](O)[C@@H]2O)[C@@H](O)[C@@H]1O
Active |  | C=CCCCO[C@H]1O[C@H](CO[C@H]2O[C@H](CO[C@H]3O[C@H](CO)[C@@H](O)[C@@H]3O)[C@@H](O)[C@@H]2O)[C@@H](O)[C@@H]1O
 | 40.9 | O=C(CCCC[C@@H]1SC[C@@H]2NC(=O)N[C@@H]21)NCCSCCCCCO[C@H]1O[C@H](CO[C@H]2O[C@H](CO)[C@@H](O)[C@@H]2O)[C@@H](O)[C@@H]1O
Active |  | C=CCCCO[C@H]1O[C@H](CO[C@H]2O[C@H](CO)[C@@H](O)[C@@H]2O)[C@@H](O)[C@@H]1O
